Test results taken from ChEMBL document CHEMBL1201862, “PubChem BioAssay data set” (2004).
The source made the active and inactive calls.

Columns and labels:
[1] = IC50 of insulin release inhibition, rat insulinoma INS-1E line, 5 mM glucose, cell-based (AID 1117331); format: functional
[2] = biological target: NAD-dependent protein deacylase sirtuin-5, mitochondrial (Homo sapiens, UniProt Q9NXA8); assay: sirtuin-5 deacylation blockers, concentration series – biochemical, fluorescence imaging, cherry-pick, set 5, dose response (AID 720591);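 also: desuccinylation of succinyl peptide AMC substrate read as fluorescence after trypsin release; potency of inhibitors that lower fluorescence and may act on trypsin instead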
[3] = biological target: T1, Replicative DNA helicase DnaB (Mycobacterium tuberculosis, UniProt P9WMR3); assay: DnaB intein splicing inhibitors, dose response, biochemical, cell-free fluorescence (AID 449749); format: functional
T1 sequence (P9WMR3 whole entry): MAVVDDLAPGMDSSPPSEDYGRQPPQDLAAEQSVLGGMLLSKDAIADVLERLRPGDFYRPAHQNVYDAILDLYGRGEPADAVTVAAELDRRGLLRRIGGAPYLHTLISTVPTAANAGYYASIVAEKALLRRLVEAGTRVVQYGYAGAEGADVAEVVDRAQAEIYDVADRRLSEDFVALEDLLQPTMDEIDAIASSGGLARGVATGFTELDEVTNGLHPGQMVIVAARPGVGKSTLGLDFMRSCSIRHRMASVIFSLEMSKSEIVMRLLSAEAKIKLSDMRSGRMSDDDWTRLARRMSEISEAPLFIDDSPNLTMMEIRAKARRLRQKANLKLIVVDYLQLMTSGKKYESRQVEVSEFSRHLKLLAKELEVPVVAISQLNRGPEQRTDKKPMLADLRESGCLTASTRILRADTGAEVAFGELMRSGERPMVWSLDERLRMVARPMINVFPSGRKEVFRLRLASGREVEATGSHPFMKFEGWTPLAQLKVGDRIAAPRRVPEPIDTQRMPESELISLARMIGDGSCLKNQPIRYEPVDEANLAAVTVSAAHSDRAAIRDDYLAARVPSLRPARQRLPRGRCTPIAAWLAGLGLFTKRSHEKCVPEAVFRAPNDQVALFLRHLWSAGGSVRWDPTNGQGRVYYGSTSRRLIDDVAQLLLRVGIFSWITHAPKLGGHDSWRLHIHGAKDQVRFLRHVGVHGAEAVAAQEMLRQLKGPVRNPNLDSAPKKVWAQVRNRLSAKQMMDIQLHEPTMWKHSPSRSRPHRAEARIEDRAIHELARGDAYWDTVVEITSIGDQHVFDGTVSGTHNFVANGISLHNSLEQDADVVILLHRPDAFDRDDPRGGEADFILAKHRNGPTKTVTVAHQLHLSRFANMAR

[4] = biological target: T2, Protein RecA (Mycobacterium tuberculosis, UniProt P9WHJ3); assay: Fluorescence Cell-Free Homogeneous Dose Retest to Identify Inhibitors of RecA-Intein Splicing Activity. [Related pubchem assays (depositor defined):AID2097, AID2223, AID489010, AID492950]; format: functional
T2 sequence (P9WHJ3 whole entry): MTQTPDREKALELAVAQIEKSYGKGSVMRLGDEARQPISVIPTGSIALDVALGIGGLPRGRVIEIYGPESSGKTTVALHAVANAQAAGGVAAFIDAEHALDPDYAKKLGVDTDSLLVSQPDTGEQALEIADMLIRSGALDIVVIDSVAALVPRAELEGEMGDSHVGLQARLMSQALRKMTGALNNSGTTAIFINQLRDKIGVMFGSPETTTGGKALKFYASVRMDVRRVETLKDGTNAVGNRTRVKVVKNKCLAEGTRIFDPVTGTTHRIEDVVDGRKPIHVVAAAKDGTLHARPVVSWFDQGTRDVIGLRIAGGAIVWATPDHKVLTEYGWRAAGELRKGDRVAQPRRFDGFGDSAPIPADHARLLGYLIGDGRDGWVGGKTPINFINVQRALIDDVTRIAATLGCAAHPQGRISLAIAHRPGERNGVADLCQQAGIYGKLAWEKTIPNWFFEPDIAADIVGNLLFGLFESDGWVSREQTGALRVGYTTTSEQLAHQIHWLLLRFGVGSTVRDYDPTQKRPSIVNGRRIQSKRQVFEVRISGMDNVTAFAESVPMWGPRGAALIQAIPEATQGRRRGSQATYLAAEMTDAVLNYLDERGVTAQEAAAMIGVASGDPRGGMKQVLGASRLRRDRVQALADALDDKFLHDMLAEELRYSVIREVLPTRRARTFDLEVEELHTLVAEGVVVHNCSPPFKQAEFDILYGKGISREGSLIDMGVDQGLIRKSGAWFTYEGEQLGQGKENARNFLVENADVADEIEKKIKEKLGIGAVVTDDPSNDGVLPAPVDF

[5] = biological target: fMet-Leu-Phe receptor (Homo sapiens, UniProt P21462); assay: formyl peptide receptor binders – dose response (AID 519); format: functional
[6] = system: Streptococcus sp. 'group A'; assay: Streptococcus pyogenes SK(-)GAS viability under kanamycin – luminescence, BacTiterGlo, confirmation, counter-screen for streptokinase expression inhibitor project, dose response (AID 1900); format: functional, organism-based
[7] = Trypanosoma cruzi growth suppression in host cells – NIH3T3 host cells, beta-gal luminescence, confirmation (AID 2044); format: functional, cell-based;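 also: intracellular parasites grown in NIH/3T3 mouse fibroblasts as host cells; luminescent beta-galactosidase reporter signal from transgenic T. cruzi replicating inside host cells; inhibitors lower the luminescence signal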
[8] = NIH3T3 cell viability loss – ATP luminescence, mouse fibroblasts, counter-screen, dose response (AID 2010); format: functional, cell-based;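 also: cells exposed to compound for about 90 hours before reading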
[9] = system: Streptococcus; assay: GAS UMAA2166 growth inhibition – luminescence, BacTiterGlo, counter-screen for streptokinase expression inhibitor project, dose response (AID 1915); format: functional, organism-based;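 also: potency for reduction of bacterial viability or growth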
[10] = biological target: T3, Ubiquitin-conjugating enzyme E2 N (Homo sapiens, UniProt P61088); format: functional;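 also: Dose-response confirmation in a TR-FRET assay detecting UBC13-driven polyubiquitin chain formation, inhibition measured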
T3 sequence (P61088 whole entry): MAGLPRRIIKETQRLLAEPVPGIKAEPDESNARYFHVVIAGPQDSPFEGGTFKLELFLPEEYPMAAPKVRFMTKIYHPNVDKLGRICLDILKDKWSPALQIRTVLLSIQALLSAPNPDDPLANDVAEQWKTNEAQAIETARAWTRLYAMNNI

[11] = biological target: Heat shock protein HSP 90-alpha (Homo sapiens, UniProt P07900); format: functional, organism-based
[12] = biological target: T4, Apoptotic protease-activating factor 1 (Homo sapiens, UniProt O14727); format: functional
T4 sequence (O14727 whole entry): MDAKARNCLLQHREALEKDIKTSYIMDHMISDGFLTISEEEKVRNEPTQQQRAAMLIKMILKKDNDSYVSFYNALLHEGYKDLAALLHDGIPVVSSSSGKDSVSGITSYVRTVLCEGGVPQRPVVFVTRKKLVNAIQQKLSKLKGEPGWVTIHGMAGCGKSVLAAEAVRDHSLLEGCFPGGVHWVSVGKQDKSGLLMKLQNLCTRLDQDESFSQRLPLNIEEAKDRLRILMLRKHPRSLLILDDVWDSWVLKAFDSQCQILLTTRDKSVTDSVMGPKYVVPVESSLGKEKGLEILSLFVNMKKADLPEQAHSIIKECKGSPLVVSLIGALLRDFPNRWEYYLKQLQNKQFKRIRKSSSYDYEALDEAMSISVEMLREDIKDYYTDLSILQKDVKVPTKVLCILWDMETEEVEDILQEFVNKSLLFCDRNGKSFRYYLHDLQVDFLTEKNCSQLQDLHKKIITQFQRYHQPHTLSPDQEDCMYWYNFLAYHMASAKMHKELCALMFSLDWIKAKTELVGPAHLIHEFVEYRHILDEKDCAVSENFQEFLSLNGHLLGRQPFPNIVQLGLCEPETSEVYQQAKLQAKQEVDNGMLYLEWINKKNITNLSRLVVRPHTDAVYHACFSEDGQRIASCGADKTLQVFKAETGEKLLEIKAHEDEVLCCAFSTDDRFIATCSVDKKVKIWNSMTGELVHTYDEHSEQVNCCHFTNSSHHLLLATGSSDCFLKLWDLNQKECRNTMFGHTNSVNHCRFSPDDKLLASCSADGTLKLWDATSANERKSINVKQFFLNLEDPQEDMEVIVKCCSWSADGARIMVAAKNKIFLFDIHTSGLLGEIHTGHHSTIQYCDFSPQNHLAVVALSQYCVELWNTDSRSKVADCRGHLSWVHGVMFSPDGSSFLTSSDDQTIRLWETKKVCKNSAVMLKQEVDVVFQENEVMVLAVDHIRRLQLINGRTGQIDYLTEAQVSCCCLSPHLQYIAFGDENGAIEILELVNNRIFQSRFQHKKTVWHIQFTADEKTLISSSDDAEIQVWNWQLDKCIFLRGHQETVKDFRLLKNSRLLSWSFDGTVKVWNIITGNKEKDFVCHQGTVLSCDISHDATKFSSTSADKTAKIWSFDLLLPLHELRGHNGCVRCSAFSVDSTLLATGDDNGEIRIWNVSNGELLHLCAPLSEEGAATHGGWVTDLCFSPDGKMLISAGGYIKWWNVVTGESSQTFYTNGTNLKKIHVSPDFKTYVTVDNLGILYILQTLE

[13] = system: INS1; assay: INS-1E survival protection against cytokine death – cell-based, luminescence, retest, dose response (AID 449756); format: functional; conditions: Rattus norvegicus;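 also: cell death triggered by IL-1 beta plus TNF-alpha plus IFN-gamma mixture; protective hits raise ATP signal compared with cytokine alone wells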
[14] = biological target: Melanocortin receptor 4 (Homo sapiens, UniProt P32245); format: functional, cell-based;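 also: Cell-based assay with luminescence read-out, confirmatory dose-response testing for agonist activity of biased ligands at MC4R; human U2OS cells with tagged receptor and beta-arrestin; potency of agonists that increase receptor coupling to beta-arrestin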
[15] = biological target: DNA repair protein RAD52 homolog (Homo sapiens, UniProt P43351); format: functional, biochemical
[16] = biological target: Paired box protein Pax-8 (Homo sapiens, UniProt Q06710); assay: PAX8 transcriptional activity inhibition in RMG-I – RMG-I cells, luciferase, cherry-pick, dose response (AID 687027); format: functional, cell-based;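 also: luciferase reporter driven by Pax8 target thyroperoxidase promoter measured by SteadyGlo luminescence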
[17] = A549 cell cytotoxicity, dose response, cytotoxicity control, plate reader, cherry-pick, antagonist series (AID 743412); format: functional, cell-based
[18] = toxicity toward HepG2 liver cells – cell-based, plate reader, cherry-pick, antagonist series, cytotoxicity control, dose response (AID 743416); format: functional
[19] = blockers of bursicon-stimulated LGR2 cAMP reporter – cell-based, HEK293, CRE-luciferase reporter, cherry pick, set 2, dose response (AID 743343); format: functional;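 also: transfected cells were stimulated with diluted bursicon conditioned medium after compound addition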
[20] = general cell-killing toxicity readout – plate reader, dry powder samples, cytotoxicity control for PAX8 inhibitor project, dose response (AID 743021); format: functional, cell-based
[21] = blockade of melanocortin 4 receptor signaling – cell-based, plate reader, cherry pick, counter-screen for LGR2 antagonist project, dose response (AID 743444); format: functional;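 also: transfected HEK 293 cells stimulated with alpha-MSH peptide; potency of inhibitors of the alpha-MSH evoked signal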
[22] = viability loss in HEK293 cells – cell-based, plate reader, cherry-picked samples, cytotoxicity control, dose response (AID 743446); format: functional
[23] = CMV-driven luciferase expression suppression in HEK293 – cell-based, luminescence, dry powder, counter-screen for Pax8 inhibitor project, dose response (AID 743020); format: functional

Chain of Paired box protein Pax-8 (Q06710 whole entry): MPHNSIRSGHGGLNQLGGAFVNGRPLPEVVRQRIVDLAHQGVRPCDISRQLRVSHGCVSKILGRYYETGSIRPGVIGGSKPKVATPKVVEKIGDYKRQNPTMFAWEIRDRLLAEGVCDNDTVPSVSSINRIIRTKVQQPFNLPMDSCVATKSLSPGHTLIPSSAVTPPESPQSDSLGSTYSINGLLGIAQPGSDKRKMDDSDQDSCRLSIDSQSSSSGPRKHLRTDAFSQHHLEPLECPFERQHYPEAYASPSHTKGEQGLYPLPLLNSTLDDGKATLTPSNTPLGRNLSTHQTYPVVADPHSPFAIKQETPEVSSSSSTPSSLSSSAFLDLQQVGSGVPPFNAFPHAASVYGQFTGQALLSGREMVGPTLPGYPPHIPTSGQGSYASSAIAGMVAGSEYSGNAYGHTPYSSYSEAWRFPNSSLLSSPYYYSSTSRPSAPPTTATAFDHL
Chain of Melanocortin receptor 4 (P32245 whole entry): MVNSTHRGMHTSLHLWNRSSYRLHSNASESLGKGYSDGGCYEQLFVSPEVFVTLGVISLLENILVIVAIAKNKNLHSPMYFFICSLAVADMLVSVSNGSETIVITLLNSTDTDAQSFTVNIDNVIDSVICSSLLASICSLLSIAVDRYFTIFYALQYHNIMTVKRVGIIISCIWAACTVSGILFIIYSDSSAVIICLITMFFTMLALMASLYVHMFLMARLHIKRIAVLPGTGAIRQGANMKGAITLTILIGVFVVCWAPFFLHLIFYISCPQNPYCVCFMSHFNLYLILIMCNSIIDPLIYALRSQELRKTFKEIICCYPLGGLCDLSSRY
Chain of fMet-Leu-Phe receptor (P21462 whole entry): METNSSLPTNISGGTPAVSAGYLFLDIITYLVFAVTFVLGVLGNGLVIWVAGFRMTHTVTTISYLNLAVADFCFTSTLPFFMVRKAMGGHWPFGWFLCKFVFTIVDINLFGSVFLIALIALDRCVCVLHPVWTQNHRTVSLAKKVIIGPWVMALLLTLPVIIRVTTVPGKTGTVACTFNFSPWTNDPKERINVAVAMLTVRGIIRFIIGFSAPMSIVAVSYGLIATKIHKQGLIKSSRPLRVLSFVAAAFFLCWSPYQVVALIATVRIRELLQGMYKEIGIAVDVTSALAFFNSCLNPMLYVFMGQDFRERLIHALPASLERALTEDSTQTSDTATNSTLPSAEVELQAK
Chain of NAD-dependent protein deacylase sirtuin-5, mitochondrial (Q9NXA8 whole entry): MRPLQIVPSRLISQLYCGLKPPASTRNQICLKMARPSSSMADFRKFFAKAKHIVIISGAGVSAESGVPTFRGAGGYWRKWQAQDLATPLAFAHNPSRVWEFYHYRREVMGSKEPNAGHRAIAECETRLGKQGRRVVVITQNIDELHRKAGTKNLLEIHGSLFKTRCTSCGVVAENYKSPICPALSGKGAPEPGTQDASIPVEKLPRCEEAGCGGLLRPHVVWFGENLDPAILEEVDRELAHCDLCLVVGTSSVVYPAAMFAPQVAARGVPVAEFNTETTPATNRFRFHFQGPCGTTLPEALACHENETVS
Chain of DNA repair protein RAD52 homolog (P43351 whole entry): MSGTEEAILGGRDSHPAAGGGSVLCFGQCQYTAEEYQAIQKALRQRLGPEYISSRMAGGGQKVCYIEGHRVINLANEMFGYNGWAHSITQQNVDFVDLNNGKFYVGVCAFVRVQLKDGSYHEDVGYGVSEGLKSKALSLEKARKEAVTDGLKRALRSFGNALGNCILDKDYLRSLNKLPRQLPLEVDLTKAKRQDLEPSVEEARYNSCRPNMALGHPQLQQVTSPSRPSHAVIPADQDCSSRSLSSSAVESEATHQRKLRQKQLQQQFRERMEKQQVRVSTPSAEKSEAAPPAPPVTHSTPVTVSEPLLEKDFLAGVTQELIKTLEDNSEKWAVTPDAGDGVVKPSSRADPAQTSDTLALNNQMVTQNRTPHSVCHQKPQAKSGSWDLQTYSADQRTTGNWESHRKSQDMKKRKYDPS

C[C@@H](CN(C)C)CN1c2ccccc2Sc2ccccc21
IC50 [1]: > 33.3 µM (inactive)

CS(=O)(=O)N(CC(=O)N1CCCCC1)c1cccc(F)c1
AC50 [2]: 29.7 µM (active)

COc1cc(-n2nc(C)c3c2OC(N)=C(C#N)C3c2ccccc2)c(Cl)c(Br)c1O (stereo not given)
AC50 [3]: 15.6 µM (active)
EC50 [4]: 3.47 µM (active)
Ki [5]: 32.5 µM (inactive)

CCCCCCCCCCOC(=O)C[n+]1c(COc2cccc(C)c2)n(C)c2ccccc21
EC50 [6]: 4.16 µM (active)
EC50 [7]: 1 µM (active)
EC50 [8]: > 60 µM (not active)
EC50 [9]: 7.73 µM (active)
IC50 [10]: > 20 µM (inactive)
AC50 [3]: 3.19 µM (active)
AC50 [11]: 32.5 µM (active)
IC50 [12]: 15.9 µM (active)
EC50 [4]: 9.88 µM (active)
AC50 [13]: 3.87 µM (active)
EC50 [14]: > 89.2 µM (inactive)
AC50 [15]: 11.9 µM (active)

Oc1nc2ccccc2n1C1CCN(C(c2cc3ccccc3o2)c2nnnn2-c2ccc3c(c2)OCCO3)CC1 (stereo not given)
AC50 [16]: 5.8 µM (active)
AC50 [17]: 12.6 µM (active)
AC50 [18]: 39.1 µM (active)
AC50 [19]: 11.6 µM (active)
AC50 [20]: 24.3 µM (active)
AC50 [21]: 8.87 µM (active)
AC50 [22]: 15.5 µM (active)

CCCCC(=O)N1CCN(c2ccc(OC)cc2[N+](=O)[O-])CC1
AC50 [23]: < 21.5 µM (active)
